Experimental data published in PMC9823097, “Dysregulation of PRMT5 in chronic lymphocytic leukemia promotes progression with high risk of Richter’s transformation” (Nature Communications, 2023).

Test system: HG3 cells
Assay: Cell growth curves over 12 days, HG3
Assay type: cell-based
Protocol: Live cells/mL were counted on days 3, 6, 10, and 12. […] The split factor was calculated at indicated time points by dividing the counted cells/mL by 3E5. Cell growth was extrapolated over time by multiplying the subsequent cell count by the previous split factor. Cell growth is plotted as fold change relative to DMSO-treated cells.

Structure (SMILES): O=C(NC[C@H](O)CN1CCc2ccccc2C1)c1cc(NC2COC2)ncn1 [EPZ015666]
- Rep 1 Live Cells [Fold Change] (HG3, 1 nM, day 0): 1 Fold Change
- Rep 2 Live Cells [Fold Change] (HG3, 1 nM, day 0): 1 Fold Change
- Rep 1 Live Cells [Fold Change] (HG3, 1 nM, day 3): 5.41 Fold Change
- Rep 2 Live Cells [Fold Change] (HG3, 1 nM, day 3): 6.183 Fold Change
- Rep 1 Live Cells [Fold Change] (HG3, 1 nM, day 6): 37.87 Fold Change
- Rep 2 Live Cells [Fold Change] (HG3, 1 nM, day 6): 41.0161 Fold Change
- Rep 1 Live Cells [Fold Change] (HG3, 1 nM, day 10): 230.663 Fold Change
- Rep 2 Live Cells [Fold Change] (HG3, 1 nM, day 10): 364.018 Fold Change
- Rep 1 Live Cells [Fold Change] (HG3, 1 nM, day 12): 1359.37 Fold Change
- Rep 2 Live Cells [Fold Change] (HG3, 1 nM, day 12): 2238.71 Fold Change
- Rep 1 Live Cells [Fold Change] (HG3, 10 nM, day 0): 1 Fold Change
- Rep 2 Live Cells [Fold Change] (HG3, 10 nM, day 0): 1 Fold Change
- Rep 1 Live Cells [Fold Change] (HG3, 10 nM, day 3): 6.05 Fold Change
- Rep 2 Live Cells [Fold Change] (HG3, 10 nM, day 3): 5.567 Fold Change
- Rep 1 Live Cells [Fold Change] (HG3, 10 nM, day 6): 44.77 Fold Change
- Rep 2 Live Cells [Fold Change] (HG3, 10 nM, day 6): 36.2761 Fold Change
- Rep 1 Live Cells [Fold Change] (HG3, 10 nM, day 10): 317.46 Fold Change
- Rep 2 Live Cells [Fold Change] (HG3, 10 nM, day 10): 308.347 Fold Change
- Rep 1 Live Cells [Fold Change] (HG3, 10 nM, day 12): 1720.21 Fold Change
- Rep 2 Live Cells [Fold Change] (HG3, 10 nM, day 12): 1505.76 Fold Change
- Rep 1 Live Cells [Fold Change] (HG3, 100 nM, day 0): 1 Fold Change
- Rep 2 Live Cells [Fold Change] (HG3, 100 nM, day 0): 1 Fold Change
- Rep 3 Live Cells [Fold Change] (HG3, 100 nM, day 0): 1 Fold Change
- Rep 4 Live Cells [Fold Change] (HG3, 100 nM, day 0): 1 Fold Change
- Rep 1 Live Cells [Fold Change] (HG3, 100 nM, day 3): 5.29 Fold Change
- Rep 2 Live Cells [Fold Change] (HG3, 100 nM, day 3): 5.42 Fold Change
- Rep 3 Live Cells [Fold Change] (HG3, 100 nM, day 3): 7.7 Fold Change
- Rep 4 Live Cells [Fold Change] (HG3, 100 nM, day 3): 8.317 Fold Change
- Rep 1 Live Cells [Fold Change] (HG3, 100 nM, day 6): 34.2087 Fold Change
- Rep 2 Live Cells [Fold Change] (HG3, 100 nM, day 6): 34.688 Fold Change
- Rep 3 Live Cells [Fold Change] (HG3, 100 nM, day 6): 44.4033 Fold Change
- Rep 4 Live Cells [Fold Change] (HG3, 100 nM, day 6): 58.2167 Fold Change
- Rep 1 Live Cells [Fold Change] (HG3, 100 nM, day 10): 327.781 Fold Change
- Rep 2 Live Cells [Fold Change] (HG3, 100 nM, day 10): 304.216 Fold Change
- Rep 3 Live Cells [Fold Change] (HG3, 100 nM, day 10): 521.739 Fold Change
- Rep 4 Live Cells [Fold Change] (HG3, 100 nM, day 10): 589.444 Fold Change
- Rep 1 Live Cells [Fold Change] (HG3, 100 nM, day 12): 1552.37 Fold Change
- Rep 2 Live Cells [Fold Change] (HG3, 100 nM, day 12): 1763.75 Fold Change
- Rep 3 Live Cells [Fold Change] (HG3, 100 nM, day 12): 1182.61 Fold Change
- Rep 4 Live Cells [Fold Change] (HG3, 100 nM, day 12): 2564.08 Fold Change
- Rep 1 Live Cells [Fold Change] (HG3, 1 µM, day 0): 1 Fold Change
- Rep 2 Live Cells [Fold Change] (HG3, 1 µM, day 0): 1 Fold Change
- Rep 3 Live Cells [Fold Change] (HG3, 1 µM, day 0): 1 Fold Change
- Rep 4 Live Cells [Fold Change] (HG3, 1 µM, day 0): 1 Fold Change
- Rep 1 Live Cells [Fold Change] (HG3, 1 µM, day 3): 4.22 Fold Change
- Rep 2 Live Cells [Fold Change] (HG3, 1 µM, day 3): 4.83 Fold Change
- Rep 3 Live Cells [Fold Change] (HG3, 1 µM, day 3): 7.35 Fold Change
- Rep 4 Live Cells [Fold Change] (HG3, 1 µM, day 3): 8.167 Fold Change
- Rep 1 Live Cells [Fold Change] (HG3, 1 µM, day 6): 27.219 Fold Change
- Rep 2 Live Cells [Fold Change] (HG3, 1 µM, day 6): 35.0658 Fold Change
- Rep 3 Live Cells [Fold Change] (HG3, 1 µM, day 6): 34.79 Fold Change
- Rep 4 Live Cells [Fold Change] (HG3, 1 µM, day 6): 45.4611 Fold Change
- Rep 1 Live Cells [Fold Change] (HG3, 1 µM, day 10): 173.707 Fold Change
- Rep 2 Live Cells [Fold Change] (HG3, 1 µM, day 10): 145.701 Fold Change
- Rep 3 Live Cells [Fold Change] (HG3, 1 µM, day 10): 233.093 Fold Change
- Rep 4 Live Cells [Fold Change] (HG3, 1 µM, day 10): 381.873 Fold Change
- Rep 1 Live Cells [Fold Change] (HG3, 1 µM, day 12): 608.205 Fold Change
- Rep 2 Live Cells [Fold Change] (HG3, 1 µM, day 12): 463.207 Fold Change
- Rep 3 Live Cells [Fold Change] (HG3, 1 µM, day 12): 924.602 Fold Change
- Rep 4 Live Cells [Fold Change] (HG3, 1 µM, day 12): 1559.32 Fold Change
- effect on growth potential (cell growth) (HG3, continuous exposure over 12 days): No changes in growth potential
